pIC50: −log10 of the molar value. Where a name gives a salt, the structure may show the parent alone.
Target: T1, proton pump (H+/K+-ATPase) (Sus scrofa, UniProt P19156)
T1 construct: Gastric vesicles were prepared from hog stomach via centrifugal separation; from tissue; host or cells: hog stomach (gastric vesicles, method of Rabon et al. 1988)
Experiment: Measurement of inhibitory effects on proton pump (H+/K+-ATPase) activities
Assay type: biochemical
Conditions: hog gastric vesicles, K+-specific H+/K+-ATPase activity, Tris-HCl buffer pH 7.4, 37° C. for 40 minutes, malachite green Pi readout
Method: 1) Preparation of Gastric Vesicles
Gastric vesicles were prepared from hog stomach via centrifugal separation (Edd C. Rabon et al., Preparation of Gastric H^+,K^+-ATPase, Methods in enzymology, vol. 157 Academic Press Inc., (1988), pp. 649-654). The protein contents of the thus prepared gastric vesicles were quantitated by Bicinchoninic Acid (BCA) kit.
2) Measurement of Inhibitory Effects on Proton Pump (H^+/K^+-ATPase) Activities
The inhibitory effects of the compounds of the present invention against proton pump activities were measured using a 96-well plate. In this assay, the K^+-specific H^+/K^+-ATPase activities were calculated based on the difference between the H^+/K^+-ATPase activity in the presence of K^+ and that in the absence of K. In the 96-well plate, 0.5% dimethyl sulfoxide (DMSO) in buffer was added to the negative and positive control groups, and the diluted compounds of the present invention were added to the test groups. All assays were performed in a reaction volume of 100 μl at room temperature. The reaction buffer solution (60 mmol/l Tris-HCl buffer, pH 7.4) including the hog gastric vesicles was added with DMSO and the compounds at various concentrations, and then further added with 10 μl of 10 mmol/1 adenosine triphosphate Tris buffer solution (60 mmol/l Tris-HCl buffer, pH 7.4) to initiate an enzyme reaction. […] The amount of monophosphate (Pi) in the reaction was measured at 570 nm using a micro plate reader (FLUOstar Omega, BMG LABTECH). The inhibition rates (%) were determined from the activity values of control groups and those of test compounds at various concentrations, and the […] of the test compounds were calculated based on the respective inhibition value (%) using the Logistic 4-parameter function of Sigmaplot 8.0 program.

T1 sequence (P19156 whole entry): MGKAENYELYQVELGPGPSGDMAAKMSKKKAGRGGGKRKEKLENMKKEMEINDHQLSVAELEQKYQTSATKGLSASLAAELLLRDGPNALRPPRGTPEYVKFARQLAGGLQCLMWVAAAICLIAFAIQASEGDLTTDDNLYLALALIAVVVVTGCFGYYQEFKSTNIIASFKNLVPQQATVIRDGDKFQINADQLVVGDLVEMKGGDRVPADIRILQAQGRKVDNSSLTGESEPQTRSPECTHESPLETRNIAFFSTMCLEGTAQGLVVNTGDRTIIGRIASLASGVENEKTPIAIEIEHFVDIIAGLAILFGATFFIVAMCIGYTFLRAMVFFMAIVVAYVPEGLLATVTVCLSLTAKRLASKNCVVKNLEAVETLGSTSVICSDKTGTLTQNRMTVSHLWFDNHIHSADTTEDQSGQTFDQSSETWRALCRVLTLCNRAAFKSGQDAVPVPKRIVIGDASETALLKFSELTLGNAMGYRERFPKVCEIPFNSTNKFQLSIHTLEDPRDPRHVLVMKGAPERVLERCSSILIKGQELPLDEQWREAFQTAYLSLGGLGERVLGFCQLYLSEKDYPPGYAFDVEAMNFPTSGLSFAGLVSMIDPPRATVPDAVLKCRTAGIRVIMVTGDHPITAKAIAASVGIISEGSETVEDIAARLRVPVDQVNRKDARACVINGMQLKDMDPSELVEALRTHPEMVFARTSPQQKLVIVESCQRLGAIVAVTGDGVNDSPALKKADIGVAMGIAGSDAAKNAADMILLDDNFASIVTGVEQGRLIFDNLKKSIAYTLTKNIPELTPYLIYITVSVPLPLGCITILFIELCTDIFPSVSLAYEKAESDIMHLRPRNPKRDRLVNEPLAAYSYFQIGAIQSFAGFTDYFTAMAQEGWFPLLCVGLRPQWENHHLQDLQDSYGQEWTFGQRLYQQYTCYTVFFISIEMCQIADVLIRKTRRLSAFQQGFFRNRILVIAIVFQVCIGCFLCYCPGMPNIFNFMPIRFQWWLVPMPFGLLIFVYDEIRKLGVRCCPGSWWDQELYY
T1 sequence (P18434 whole entry partner): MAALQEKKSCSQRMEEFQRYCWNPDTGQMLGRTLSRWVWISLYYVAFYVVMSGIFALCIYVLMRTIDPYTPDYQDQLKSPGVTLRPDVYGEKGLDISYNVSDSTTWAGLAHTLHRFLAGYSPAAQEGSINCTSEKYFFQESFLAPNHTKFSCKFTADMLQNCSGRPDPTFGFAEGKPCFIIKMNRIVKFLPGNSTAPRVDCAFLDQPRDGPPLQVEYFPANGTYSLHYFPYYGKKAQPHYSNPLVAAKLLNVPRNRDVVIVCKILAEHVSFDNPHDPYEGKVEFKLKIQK

| pIC50 | SMILES |
| --- | --- |
| 6.64 | CNCc1cn(S(=O)(=O)c2cccnc2)c2cc(Nc3ccc(F)cc3C)cnc12 [Example 346, N-(4-fluoro-2-methylphenyl)-3-((methylamino)methyl)-1-(pyridin-3-ylsulfonyl)-1H-pyrrolo[3,2-b]pyridin-6-amine hydrochloride] |
| 6.66 | CNCc1cn(S(=O)(=O)c2cccnc2)c2cc(Nc3ccc(F)cc3C)ccc12 [Example 23, N-(4-fluoro-2-methylphenyl)-3-((methylamino)methyl)-1-(pyridin-3-ylsulfonyl)-1H-indol-6-amine hydrochloride] |
| 6.08 | CNCc1cn(S(=O)(=O)c2cccc(F)c2)c2cc(Nc3ccc(C)cc3Cl)ncc12 [Example 353, N-(2-chloro-4-methylphenyl)-1-((3-fluorophenyl)sulfonyl)-3-((methylamino)methyl)-1H-pyrrolo[3,2-c]pyridin-6-amine hydrochloride] |
| 6.09 | CNCc1cn(S(=O)(=O)c2cncc(F)c2)c2cc(Nc3ccc(OC(F)(F)F)cc3Cl)ccc12 [Example 215, N-(2-chloro-4-(trifluoromethoxy)phenyl)-1-((5-fluoropyridin-3-yl)sulfonyl)-3-((methylamino)methyl)-1H-indol-6-amine hydrochloride] |
| 6.00 | CNCc1cn(S(=O)(=O)c2ccc(F)c(F)c2)c2cc(Nc3ccc(C)cc3F)ccc12 [Example 237, 1-((3,4-difluorophenyl)sulfonyl)-N-(2-fluoro-4-methylphenyl)-3-((methylamino)methyl)-1H-indol-6-amine hydrochloride] |
| 6.23 | CNCc1cn(S(=O)(=O)c2cccc(C(F)(F)F)c2)c2cc(Nc3ccc(C)cc3F)ccc12 [Example 183, N-(2-fluoro-4-methylphenyl)-3-((methylamino)methyl)-1-((3-(trifluoromethyl)phenyl)sulfonyl)-1H-indol-6-amine hydrochloride] |
| 6.22 | CNCc1cn(S(=O)(=O)c2cccc(OC(F)F)c2)c2cc(Cc3ccc(C)cc3Cl)ccc12 [Example 304, 1-(6-(2-chloro-4-methylbenzyl)-1-((3-(difluoromethoxy)phenyl)sulfonyl)-1H-indol-3-yl)-N-methylmethanamine] |
| 6.31 | CNCc1cn(S(=O)(=O)c2cccnc2)c2cc(-c3ccc(C)cc3Cl)ccc12 [Example 253, 1-(6-(2-chloro-4-methylphenyl)-1-(pyridin-3-ylsulfonyl)-1H-indol-3-yl)-N-methylmethanamine hydrochloride] |
| 6.39 | CNCc1cn(S(=O)(=O)c2cccnc2)c2cc(Nc3cc(F)ccc3F)ccc12 [Example 58, N-(2,5-difluorophenyl)-3-((methylamino)methyl)-1-(pyridin-3-ylsulfonyl)-1H-indol-6-amine hydrochloride] |
| 6.54 | CNCc1cn(S(=O)(=O)c2ccc(OC(F)F)cc2)c2cc(Nc3ccc(C)cc3Cl)ccc12 [Example 220, N-(2-chloro-4-methylphenyl)-1-((4-(difluoromethoxy)phenyl)sulfonyl)-3-((methylamino)methyl)-1H-indol-6-amine hydrochloride] |
| 5.82 | CNCc1cn(S(=O)(=O)c2cccc(OC)c2)c2cc(Nc3ccc(C)nc3Cl)ccc12 [Example 172, N-(2-chloro-6-methylpyridin-3-yl)-1-((3-methoxyphenyl)sulfonyl)-3-((methylamino)methyl)-1H-indol-6-amine hydrochloride] |
| 6.57 | CNCc1cn(S(=O)(=O)c2cccc(F)c2)c2cc(Cc3ccc(C)cc3Cl)ccc12 [Example 299, 1-(6-(2-chloro-4-methylbenzyl)-1-((3-fluorophenyl)sulfonyl)-1H-indol-3-yl)-N-methylmethanamine] |
| 7.05 | CNCc1cn(S(=O)(=O)c2cccc(Cl)c2)c2cc(Nc3ccc(C)cc3Cl)ccc12 [Example 147, N-(2-chloro-4-methylphenyl)-1-((3-chlorophenyl)sulfonyl)-3-((methylamino)methyl)-1H-indol-6-amine hydrochloride] |

The remaining lines, values behind:

| SMILES | pIC50 |
| --- | --- |
| CNCc1cn(S(=O)(=O)c2ccc(OC(F)(F)F)cc2)c2cc(Nc3ccc(OC(F)(F)F)cc3C)ccc12 [Example 209, N-(2-methyl-4-(trifluoromethoxy)phenyl)-3-((methylamino)methyl)1-((4-(trifluoromethoxy)phenyl)sulfonyl)-1H-indol-6-amine hydrochloride] | 5.97 |
| CNCc1cn(S(=O)(=O)c2cccnc2)c2cc(Cc3ccc(Cl)cc3F)ccc12 [Example 274, 1-(6-(4-chloro-2-fluorobenzyl)-1-(pyridin-3-ylsulfonyl)-1H-indol-3-yl)-N-methylmethanamine hydrochloride] | 5.93 |
| CCOc1ccc(Nc2ccc3c(CNC)cn(S(=O)(=O)c4cccnc4)c3c2)c(F)c1F [Example 71, N-(4-ethoxy-2,3-difluorophenyl)-3-((methylamino)methyl)-1-(pyridin-3-ylsulfonyl)-1H-indol-6-amine hydrochloride] | 6.37 |
| CNCc1cn(S(=O)(=O)c2cccnc2)c2cc(-c3cccc(Cl)c3)ccc12 [Example 244, 1-(6-(3-chlorophenyl)-1-(pyridin-3-ylsulfonyl)-1H-indol-3-yl)-N-methylmethanamine] | 5.61 |
| CCc1cccc(Nc2ccc3c(CNC)cn(S(=O)(=O)c4cccnc4)c3c2)c1 [Example 8, N-(3-ethylphenyl)-3-((methylamino)methyl)-1-(pyridin-3-ylsulfonyl)-1H-indol-6-amine hydrochloride] | 6.77 |
| CNCc1cn(S(=O)(=O)c2cccc(C(F)(F)F)c2)c2cc(Nc3ccc(Cl)nc3Cl)ccc12 [Example 193, N-(2,6-dichloropyridin-3-yl)-3-((methylamino)methyl)-1-((3-(trifluoromethyl)phenyl)sulfonyl)-1H-indol-6-amine hydrochloride] | 6.24 |
| CNCc1cn(S(=O)(=O)c2cccnc2)c2cc(Nc3ccc(Br)cc3C(F)(F)F)ccc12 [Example 45, N-(4-bromo-2-(trifluoromethyl)phenyl)-3-((methylamino)methyl)-1-(pyridin-3-ylsulfonyl)-1H-indol-6-amine hydrochloride] | 5.92 |
| CNCc1cn(S(=O)(=O)c2cccc(OC(F)(F)F)c2)c2cc(Nc3ccc(C(F)(F)F)cc3Cl)ccc12 [Example 198, N-(2-chloro-4-(trifluoromethyl)phenyl)-3-((methylamino)methyl)-1-((3-(trifluoromethoxy)phenyl)sulfonyl)-1H-indol-6-amine hydrochloride] | 6.80 |
| CNCc1cn(S(=O)(=O)c2cccc(OC(F)(F)F)c2)c2cc(Nc3ccc(C)nc3F)ccc12 [Example 204, N-(2-fluoro-6-methylpyridin-3-yl)-3-((methylamino)methyl)-1-((3-(trifluoromethoxy)phenyl)sulfonyl)-1H-indol-6-amine hydrochloride] | 6.30 |
| CNCc1cn(S(=O)(=O)c2cccnc2)c2cc(Nc3c(F)cc(F)cc3F)ccc12 [Example 82, 3-((methylamino)methyl)-1-(pyridin-3-ylsulfonyl)-N-(2,4,6-trifluorophenyl)-1H-indol-6-amine hydrochloride] | 6.35 |
| CNCc1cn(S(=O)(=O)c2cccc(C(F)(F)F)c2)c2cc(Nc3ccc(C)c(F)c3F)ccc12 [Example 191, N-(2,3-difluoro-4-methylphenyl)-3-((methylamino)methyl)-1-((3-(trifluoromethyl)phenyl)sulfonyl)-1H-indol-6-amine hydrochloride] | 7.15 |
| CNCc1cn(S(=O)(=O)c2cccnc2)c2cc(-c3ccnc(F)c3)ccc12 [Example 256, 1-(6-(2-fluoropyridin-4-yl)-1-(pyridin-3-ylsulfonyl)-1H-indol-3-yl)-N-methylmethanamine hydrochloride] | 4.70 |
| CNCc1cn(S(=O)(=O)c2cccc(Cl)c2)c2cc(Cc3ccc(OC)nc3Cl)ccc12 [Example 293, 1-(6-((2-chloro-6-methoxypyridin-3-yl)methyl)-1-((3-chlorophenyl)sulfonyl)-1H-indol-3-yl)-N-methylmethanamine] | 6.26 |
| CNCc1cn(S(=O)(=O)c2cccnc2)c2cc(Nc3cccnc3F)ccc12 [Example 106, N-(2-fluoropyridin-3-yl)-3-((methylamino)methyl)-1-(pyridin-3-ylsulfonyl)-1H-indol-6-amine hydrochloride] | 5.47 |
| CNCc1cn(S(=O)(=O)c2ccc(OC)cc2)c2cc(Cc3ccc(C)cc3Cl)ccc12 [Example 307, 1-(6-(2-chloro-4-methylbenzyl)-1-((4-methoxyphenyl)sulfonyl)-1H-indol-3-yl)-N-methylmethanamine] | 5.92 |
| CNCc1cn(S(=O)(=O)c2cccnc2)c2cc(Nc3ccc(OC(F)(F)F)cc3F)ccc12 [Example 54, N-(2-fluoro-4-(trifluoromethoxy)phenyl)-3-((methylamino)methyl)-1-(pyridin-3-ylsulfonyl)-1H-indol-6-amine hydrochloride] | 5.98 |

— patent US9676714B2, “Sulfonylindole derivatives and method for preparing the same” (Daewoong Pharmaceutical Co., Ltd., priority 2013, dated 2017)
